Laboratory results: article PMC10056986 (Pharmaceuticals, 2023)
Where two headings read alike, the source gives them in different places.

Tests used:
HBV = assay: microbe, parasite or virus in culture; assay type: cell-based; settings: Hepatitis B virus, HepG2.2.15, read-out: EC50 for Virus
in vitro [1] = settings: human
HSV-1 GHSV-UL46 = assay: microbe, parasite or virus in culture; assay type: cell-based, herpes simplex virus type 1; settings: Human alphaherpesvirus 1, Vero C1008, read-out: EC50 for Virus
[2] = Cytotoxicity in parallel to antiviral assay; settings: African green monkey
HRV 1B = assay: microbe, parasite or virus in culture; assay type: cell-based; settings: Human rhinovirus sp., H1-HeLa, read-out: EC50 for Virus
[3] = Cytotoxicity in parallel to antiviral assay; settings: human
[4] = Cytotoxicity in parallel to antiviral assay; settings: human; remark: listed apart in the source
EV71 Shenzhen/120F1/09 = assay: microbe, parasite or virus in culture; assay type: cell-based, human enterovirus 71; settings: Enterovirus A, EV71, RD, read-out: EC50 for Virus
[5] = Cytotoxicity in MDCK cells without viral infection; settings: dog
MDCK cells = assay: Cytotoxicity in MDCK cells without viral infection; settings: MDCK, 37 °C
[6] = system: Influenza virus A/PR/8/34 (H1N1); assay: microbe, parasite or virus in culture; assay type: cell-based; settings: H1N1|PR/8, MDCK, read-out: EC50 (mean ± SD)
A/PR/8/34 (H1N1) = system: A/PR/8/34 (H1N1); design: species or system BALB/c mice; settings: mouse, in vivo
[7] = system: influenza A virus WSN/33 (H1N1); design: species or system BALB/c mice; settings: mouse, in vivo
[8] = system: Influenza virus A/WSN/33 (H1N1); assay: microbe, parasite or virus in culture; assay type: cell-based; settings: MDCK, read-out: EC50 (mean ± SD)
[9] = system: Influenza virus A/Weiss/43(H1N1); assay: microbe, parasite or virus in culture; assay type: cell-based; settings: H1N1, MDCK, read-out: EC50 (mean ± SD)
[10] = system: A/Qingyuan/GIRD01/2017 (H7N9); assay: microbe, parasite or virus in culture; assay type: cell-based, avian influenza virus; settings: Influenza A virus, H7N9, MDCK, read-out: IC50 (mean ± SD)
[11] = system: influenza A virus WSN/33 (H1N1); design: species or system BALB/c mice; settings: mouse, in vivo; remark: listed apart in the source
[12] = system: A/Guangzhou/39715/2014 (H5N6); assay: microbe, parasite or virus in culture; assay type: cell-based, avian influenza virus; settings: unidentified influenza virus, H5N6, MDCK, read-out: IC50 (mean ± SD)
Influenza virus B/Lee/40 = assay: microbe, parasite or virus in culture; assay type: cell-based; settings: MDCK, read-out: EC50 (mean ± SD)
[13] = system: influenza A virus/California/07/2009 (H1N1); design: species or system ferrets; settings: in vivo, po, 25 mg/kg/day
[14] = system: Influenza virus A/WS/33 (H1N1); assay: microbe, parasite or virus in culture; assay type: cell-based; settings: H1N1, MDCK, read-out: EC50 (mean ± SD)
A/Anhui/01/2013 (H7N9) = assay: microbe, parasite or virus in culture; assay type: cell-based, avian influenza virus; settings: Influenza A virus, H7N9, MDCK, read-out: IC50 (mean ± SD)
[15] = system: Influenza virus A/Mal/302/54 (H1N1); assay: microbe, parasite or virus in culture; assay type: cell-based; settings: H1N1, MDCK, read-out: EC50 (mean ± SD)
TAOK2 = TAOK2 (Homo sapiens, UniProt Q9UL54); assay: biochemical
MAP4K4 = MAP4K4 (Homo sapiens, UniProt O95819); assay: biochemical
DYRK3 = DYRK3 (Homo sapiens, UniProt O43781); assay: biochemical
Chain of DYRK3 (O43781 whole entry): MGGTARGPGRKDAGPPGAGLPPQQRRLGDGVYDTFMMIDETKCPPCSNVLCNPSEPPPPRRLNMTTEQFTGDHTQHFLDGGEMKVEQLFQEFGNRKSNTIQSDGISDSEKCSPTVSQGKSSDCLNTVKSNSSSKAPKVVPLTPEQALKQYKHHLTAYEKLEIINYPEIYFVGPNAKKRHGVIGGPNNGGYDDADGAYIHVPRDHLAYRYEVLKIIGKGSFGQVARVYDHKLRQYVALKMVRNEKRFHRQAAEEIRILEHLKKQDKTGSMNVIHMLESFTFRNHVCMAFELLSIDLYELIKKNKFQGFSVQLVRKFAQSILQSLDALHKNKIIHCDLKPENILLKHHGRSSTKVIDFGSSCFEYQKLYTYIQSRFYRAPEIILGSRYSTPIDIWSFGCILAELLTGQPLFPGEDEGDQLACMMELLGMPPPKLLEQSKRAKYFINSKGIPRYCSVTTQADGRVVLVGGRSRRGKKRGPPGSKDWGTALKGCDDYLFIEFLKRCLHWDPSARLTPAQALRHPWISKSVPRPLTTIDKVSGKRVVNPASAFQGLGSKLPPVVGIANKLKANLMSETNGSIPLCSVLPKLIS

SRC = SRC (Homo sapiens, UniProt P12931); assay: biochemical
Chain of SRC (P12931 whole entry): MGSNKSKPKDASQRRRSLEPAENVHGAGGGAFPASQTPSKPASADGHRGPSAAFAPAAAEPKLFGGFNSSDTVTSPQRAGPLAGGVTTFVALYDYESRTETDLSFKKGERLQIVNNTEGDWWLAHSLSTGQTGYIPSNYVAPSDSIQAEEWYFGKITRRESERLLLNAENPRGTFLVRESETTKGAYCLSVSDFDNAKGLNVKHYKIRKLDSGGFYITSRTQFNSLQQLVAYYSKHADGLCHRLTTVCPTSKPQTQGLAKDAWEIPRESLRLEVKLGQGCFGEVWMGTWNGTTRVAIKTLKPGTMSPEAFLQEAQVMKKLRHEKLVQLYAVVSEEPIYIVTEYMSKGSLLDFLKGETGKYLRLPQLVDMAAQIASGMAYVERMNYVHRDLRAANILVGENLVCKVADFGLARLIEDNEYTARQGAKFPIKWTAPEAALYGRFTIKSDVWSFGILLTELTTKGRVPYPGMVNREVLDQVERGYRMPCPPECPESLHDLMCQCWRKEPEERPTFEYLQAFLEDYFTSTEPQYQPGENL

EPHA2 = EPHA2 (Homo sapiens, UniProt P29317); assay: biochemical
JNK1 = JNK1 (Homo sapiens, UniProt P45983); assay: biochemical
CDK2 = CDK2 (Homo sapiens, UniProt P24941); assay: biochemical
MST4 = MST4 (Homo sapiens, UniProt Q9P289); assay: biochemical
[16] = system: Influenza virus A/California/2/2014 (H3N2); assay: microbe, parasite or virus in culture; assay type: cell-based; settings: H3N2, MDCK, read-out: EC50 (mean ± SD)
[17] = system: Influenza virus A/California/07/2009 (H1N1)pdm09; assay: microbe, parasite or virus in culture; assay type: cell-based; settings: H1N1, MDCK, read-out: EC50 (mean ± SD)
ABL1 = ABL1 (Homo sapiens, UniProt P00519); assay: biochemical
MAPKAPK2 = MAPKAPK2 (Homo sapiens, UniProt P49137); assay: biochemical
Chain of MAPKAPK2 (P49137 whole entry): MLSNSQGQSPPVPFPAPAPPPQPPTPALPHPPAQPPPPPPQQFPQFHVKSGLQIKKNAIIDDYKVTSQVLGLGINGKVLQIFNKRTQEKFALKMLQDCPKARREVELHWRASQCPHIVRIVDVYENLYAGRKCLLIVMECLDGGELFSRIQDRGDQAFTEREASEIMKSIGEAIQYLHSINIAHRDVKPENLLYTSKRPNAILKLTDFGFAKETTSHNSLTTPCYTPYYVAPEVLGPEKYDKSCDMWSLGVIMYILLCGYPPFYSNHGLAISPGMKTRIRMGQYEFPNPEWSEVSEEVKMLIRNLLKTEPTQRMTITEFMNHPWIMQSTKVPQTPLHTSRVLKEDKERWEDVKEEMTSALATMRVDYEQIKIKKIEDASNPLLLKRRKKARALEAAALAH

in vitro [18] = settings: dog, CC50 (mean ± SD)
[19] = molecular target: influenza virus polymerase (PB1, PB2, NP, PA from A/California/04/2009 (H1N1) pdm09) (Influenza A virus, UniProt C3W5R8+C3W5R9); assay type: cell-based
MINK = MINK (Homo sapiens, UniProt Q8N4C8); assay: biochemical
Chain of MINK (Q8N4C8 whole entry): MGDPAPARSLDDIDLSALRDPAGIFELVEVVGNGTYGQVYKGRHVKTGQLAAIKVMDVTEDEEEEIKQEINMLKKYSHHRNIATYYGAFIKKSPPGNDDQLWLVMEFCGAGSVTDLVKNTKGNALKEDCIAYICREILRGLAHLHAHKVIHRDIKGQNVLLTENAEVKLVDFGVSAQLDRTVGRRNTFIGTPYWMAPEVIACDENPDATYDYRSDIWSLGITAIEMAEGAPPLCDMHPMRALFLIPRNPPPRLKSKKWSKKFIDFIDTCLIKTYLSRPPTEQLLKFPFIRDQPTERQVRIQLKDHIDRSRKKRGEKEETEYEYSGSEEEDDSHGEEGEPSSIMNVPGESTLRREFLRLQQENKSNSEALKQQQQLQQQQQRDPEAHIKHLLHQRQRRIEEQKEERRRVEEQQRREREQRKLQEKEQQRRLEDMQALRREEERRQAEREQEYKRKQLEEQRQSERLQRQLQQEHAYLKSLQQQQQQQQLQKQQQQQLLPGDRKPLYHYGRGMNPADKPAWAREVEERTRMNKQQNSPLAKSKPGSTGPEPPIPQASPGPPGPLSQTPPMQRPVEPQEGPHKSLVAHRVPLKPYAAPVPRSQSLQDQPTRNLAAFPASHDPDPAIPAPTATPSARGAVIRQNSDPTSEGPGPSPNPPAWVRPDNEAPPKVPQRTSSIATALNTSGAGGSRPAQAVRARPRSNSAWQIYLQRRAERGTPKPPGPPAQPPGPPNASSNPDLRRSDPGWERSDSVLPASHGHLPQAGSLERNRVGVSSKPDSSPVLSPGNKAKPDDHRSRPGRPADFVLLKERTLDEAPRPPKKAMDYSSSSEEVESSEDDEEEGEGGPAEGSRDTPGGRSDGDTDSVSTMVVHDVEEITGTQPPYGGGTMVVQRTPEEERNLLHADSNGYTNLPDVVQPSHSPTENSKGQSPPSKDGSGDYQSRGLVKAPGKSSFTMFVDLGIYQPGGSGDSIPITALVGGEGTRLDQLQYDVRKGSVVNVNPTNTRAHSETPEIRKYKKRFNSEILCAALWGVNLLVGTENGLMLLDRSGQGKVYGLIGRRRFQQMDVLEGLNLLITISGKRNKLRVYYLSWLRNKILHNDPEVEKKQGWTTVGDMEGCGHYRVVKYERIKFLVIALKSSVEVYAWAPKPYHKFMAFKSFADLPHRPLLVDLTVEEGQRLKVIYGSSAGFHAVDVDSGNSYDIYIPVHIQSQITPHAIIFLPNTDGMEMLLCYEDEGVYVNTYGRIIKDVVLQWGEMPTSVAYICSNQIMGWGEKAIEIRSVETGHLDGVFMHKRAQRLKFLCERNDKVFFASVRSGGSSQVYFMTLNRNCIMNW

GSK3 beta = GSK3 beta (Homo sapiens, UniProt P49841); assay: biochemical
PDK1 = PDK1 (Homo sapiens, UniProt O15530); assay: biochemical
Chain of PDK1 (O15530 whole entry): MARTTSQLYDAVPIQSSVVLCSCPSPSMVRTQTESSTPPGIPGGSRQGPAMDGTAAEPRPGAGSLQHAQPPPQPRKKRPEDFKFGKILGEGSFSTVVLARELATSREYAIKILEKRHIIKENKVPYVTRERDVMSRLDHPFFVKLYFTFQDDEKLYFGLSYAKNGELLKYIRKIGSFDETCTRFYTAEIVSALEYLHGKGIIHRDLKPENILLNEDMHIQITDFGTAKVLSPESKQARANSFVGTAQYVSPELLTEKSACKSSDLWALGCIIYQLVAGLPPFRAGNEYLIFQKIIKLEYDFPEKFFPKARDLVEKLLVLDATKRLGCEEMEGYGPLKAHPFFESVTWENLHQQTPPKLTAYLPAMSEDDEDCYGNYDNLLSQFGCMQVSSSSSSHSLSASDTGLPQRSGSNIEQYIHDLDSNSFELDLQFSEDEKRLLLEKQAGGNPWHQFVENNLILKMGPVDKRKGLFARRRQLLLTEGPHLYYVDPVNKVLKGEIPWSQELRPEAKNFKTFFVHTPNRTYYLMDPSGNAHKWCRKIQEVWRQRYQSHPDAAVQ

JAK2 = JAK2 (Homo sapiens, UniProt O60674); assay: biochemical
p38 alpha = p38 alpha (Homo sapiens, UniProt Q16539); assay: biochemical
[20] = system: Influenza virus A/Hong Kong/8/68 (H3N2); assay: microbe, parasite or virus in culture; assay type: cell-based; settings: unidentified influenza virus, H3N2, MDCK, read-out: EC50 (mean ± SD)
CAMK2 alpha = CAMK2 alpha (Homo sapiens, UniProt Q9UQM7); assay: biochemical
Aurora A = Aurora A (Homo sapiens, UniProt O14965); assay: biochemical
TNIK = TNIK (Homo sapiens, UniProt Q9UKE5); assay: biochemical
PKA = PKA (Homo sapiens, UniProt P17612); assay: biochemical
LCK = LCK (Homo sapiens, UniProt P06239); assay: biochemical
Chain of LCK (P06239 whole entry): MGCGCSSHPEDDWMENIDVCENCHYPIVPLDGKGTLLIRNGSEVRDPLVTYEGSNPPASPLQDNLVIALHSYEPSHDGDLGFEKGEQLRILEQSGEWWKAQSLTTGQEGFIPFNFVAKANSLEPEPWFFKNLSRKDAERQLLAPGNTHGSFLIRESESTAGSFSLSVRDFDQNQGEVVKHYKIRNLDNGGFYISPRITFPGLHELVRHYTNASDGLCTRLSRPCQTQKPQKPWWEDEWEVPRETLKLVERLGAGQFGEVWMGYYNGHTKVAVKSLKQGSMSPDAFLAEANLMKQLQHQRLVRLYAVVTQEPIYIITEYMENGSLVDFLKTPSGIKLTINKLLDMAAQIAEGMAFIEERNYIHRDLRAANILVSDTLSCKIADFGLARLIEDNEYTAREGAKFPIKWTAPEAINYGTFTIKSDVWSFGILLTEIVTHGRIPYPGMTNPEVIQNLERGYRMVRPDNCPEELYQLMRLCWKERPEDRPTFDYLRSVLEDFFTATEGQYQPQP

CK1 alpha = CK1 alpha (Homo sapiens, UniProt P48729); assay: biochemical
CHK1 = CHK1 (Homo sapiens, UniProt O14757); assay: biochemical
KDR = KDR (Homo sapiens, UniProt P35968); assay: biochemical
FGFR1 = FGFR1 (Homo sapiens, UniProt P11362); assay: biochemical
Chain of FGFR1 (P11362 22-822): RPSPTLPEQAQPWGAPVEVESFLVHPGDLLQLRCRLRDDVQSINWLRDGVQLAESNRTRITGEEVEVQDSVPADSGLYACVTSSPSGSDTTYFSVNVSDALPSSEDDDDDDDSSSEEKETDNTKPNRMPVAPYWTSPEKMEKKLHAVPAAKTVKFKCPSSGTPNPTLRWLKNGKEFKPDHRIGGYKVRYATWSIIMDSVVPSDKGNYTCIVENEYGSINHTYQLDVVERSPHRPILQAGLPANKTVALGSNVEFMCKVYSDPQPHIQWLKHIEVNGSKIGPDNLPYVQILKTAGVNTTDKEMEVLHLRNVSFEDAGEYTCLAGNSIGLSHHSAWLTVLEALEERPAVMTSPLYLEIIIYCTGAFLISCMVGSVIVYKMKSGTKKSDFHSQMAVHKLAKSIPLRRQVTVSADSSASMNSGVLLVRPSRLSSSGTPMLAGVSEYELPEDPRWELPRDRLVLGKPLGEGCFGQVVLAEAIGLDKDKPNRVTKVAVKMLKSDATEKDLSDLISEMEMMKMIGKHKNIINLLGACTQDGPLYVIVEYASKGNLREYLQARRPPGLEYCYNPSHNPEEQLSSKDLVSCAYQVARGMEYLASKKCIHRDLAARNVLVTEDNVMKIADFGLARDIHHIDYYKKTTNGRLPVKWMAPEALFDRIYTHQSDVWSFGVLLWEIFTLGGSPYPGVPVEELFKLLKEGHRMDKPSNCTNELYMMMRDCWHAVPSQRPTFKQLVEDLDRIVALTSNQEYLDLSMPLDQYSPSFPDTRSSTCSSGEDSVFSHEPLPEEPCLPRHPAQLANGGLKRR

[21] = system: influenza A virus WSN/33 (H1N1); design: species or system BALB/c mice; settings: mouse, in vivo; remark: listed apart in the source

C=C1[C@H](CO)[C@@H](O)C[C@@H]1n1cnc2c(=O)[nH]c(N)nc21 [Entecavir, reference compound]
EC50 (HBV): 0.000338 µM | CC50 (in vitro [1]): > 0.02 µM

Nc1nc2c(ncn2COCCO)c(=O)[nH]1 [Acyclovir, reference compound]
EC50 (HSV-1 GHSV-UL46): 0.655 µM | CC50 [2]: > 10 µM

Cc1cc(CCCOc2c(C)cc(-c3noc(C(F)(F)F)n3)cc2C)on1 [Pleconaril, reference compound]
EC50 (HRV 1B): 0.028 µM | CC50 [3]: > 5 µM

CCOC(=O)/C=C/[C@H](C[C@@H]1CCNC1=O)NC(=O)[C@@H](CC(=O)[C@@H](NC(=O)c1cc(C)on1)C(C)C)Cc1ccc(F)cc1 [AG7088, reference compound]
CC50 [4]: > 1 µM | EC50 (EV71 Shenzhen/120F1/09): 0.012 µM

CCOC(=O)C1=C[C@@H](OC(CC)CC)[C@H](NC(C)=O)[C@@H](N)C1 [Oseltamivir]
CC50 [5]: > 100 µM | CC50 (MDCK cells): > 100 µM | EC50 [6]: 4.89 ± 7.37 µM | mortality rate (A/PR/8/34 (H1N1)): 90% | body weight of mice [7]: did not significantly reduce the body weight | survival rate vs vehicle [7]: could improve the survival rate | time of death relative to vehicle group [7]: died after 7 h—earlier than in the vehicle group | EC50 [8]: 10.1 ± 9.82 µM | EC50 [9]: 5.62 ± 2.78 µM | IC50 [10]: 1690 µM | animals died (of n = 8) [11]: five | day on which body weight of surviving mice began to recover [11]: 9 days | day on which weight of surviving mice increased gradually [11]: 9th | mice died (of n = 8) [11]: three | IC50 [12]: 1650 µM | EC50 (Influenza virus B/Lee/40): 2.94 ± 3.62 µM | viral load in nasal lavage fluid vs vehicle [13]: decreased significantly | EC50 [14]: 2.43 ± 1.24 µM | IC50 (A/Anhui/01/2013 (H7N9)): 175 µM | EC50 [15]: 1.34 ± 1.92 µM

O=C(O)[C@H]1C2CCC(CC2)[C@@H]1Nc1nc(-c2c[nH]c3ncc(F)cc23)ncc1F [VX-787, reference compound]
IC50 (TAOK2): > 10 µM | IC50 (MAP4K4): 1.78 µM | IC50 (DYRK3): > 10 µM | IC50 (SRC): > 10 µM | IC50 (EPHA2): > 10 µM | IC50 (JNK1): > 10 µM | IC50 (CDK2): > 10 µM | IC50 (MST4): > 10 µM | EC50 [16]: 0.00015 ± 2e-05 µM | EC50 [17]: 0.00024 ± 0.00014 µM | IC50 (ABL1): > 10 µM | IC50 (MAPKAPK2): > 10 µM | EC50 [6]: 0.00076 ± 0.000355 µM | mortality rate (A/PR/8/34 (H1N1)): 70% | CC50 (in vitro [18]): 21.1 ± 9.76 µM | IC50 ([19]; read-out: IC50, Mean ± SEM): 0.00145 ± 0.00034 µM | IC50 ([19]; read-out: IC50, experiment 1): 0.00128 µM | IC50 ([19]; read-out: IC50, experiment 2): 0.00123 µM | IC50 ([19]; read-out: IC50, experiment 3): 0.00184 µM | IC50 (MINK): > 3.33 µM | body weight of mice [7]: did not significantly reduce the body weight | survival rate vs vehicle [7]: could improve the survival rate | time of death relative to vehicle group [7]: died after 7 h—earlier than in the vehicle group | IC50 (GSK3 beta): > 3.33 µM | IC50 (PDK1): > 10 µM | EC50 [8]: 0.000315 ± 7e-05 µM | IC50 (JAK2): > 10 µM | IC50 (p38 alpha): > 10 µM | EC50 [9]: 0.000255 ± 5.5e-05 µM | EC50 [20]: 0.000162 ± 3.4e-05 µM | IC50 (CAMK2 alpha): > 10 µM | IC50 [10]: 0.00192 ± 0.000492 µM | animals died (of n = 8) [11]: four | day on which body weight of surviving mice began to recover [11]: 8 days | day on which weight of surviving mice increased gradually [11]: 8th | mice died (of n = 8) [11]: no mice died | survival rate [11]: 100% | IC50 [12]: 9.18e-05 ± 1.45e-05 µM | EC50 (Influenza virus B/Lee/40): > 0.01 µM | IC50 (Aurora A): 1.11 µM | IC50 (TNIK): > 3.33 µM | IC50 (PKA): > 10 µM | viral load in nasal lavage fluid vs vehicle [13]: decreased but showed no statistical significance | IC50 (LCK): > 10 µM | EC50 [14]: 0.000206 ± 6.1e-05 µM | IC50 (CK1 alpha): > 10 µM | IC50 (CHK1): > 10 µM | IC50 (KDR): > 10 µM | IC50 (A/Anhui/01/2013 (H7N9)): 0.000834 ± 0.000204 µM | IC50 (FGFR1): > 10 µM | EC50 [15]: 0.000295 ± 0.000111 µM | day on which mice began to regain body weight [21]: 4 days
